Results as given in patent US8119624B2, “Fused phenyl amido heterocyclic compounds” (Pfizer Inc., priority 2006, dated 2012).
Read-outs that look alike come from different tables or passages of the source.

Target: T1, Full-length glucokinase (beta cell isoform) (Homo sapiens, UniProt P35557)
T1 construct: Full-length glucokinase (beta cell isoform) was His-tagged at N-terminus; His tag (N); made in house
T1 sequence (P35557 1-465): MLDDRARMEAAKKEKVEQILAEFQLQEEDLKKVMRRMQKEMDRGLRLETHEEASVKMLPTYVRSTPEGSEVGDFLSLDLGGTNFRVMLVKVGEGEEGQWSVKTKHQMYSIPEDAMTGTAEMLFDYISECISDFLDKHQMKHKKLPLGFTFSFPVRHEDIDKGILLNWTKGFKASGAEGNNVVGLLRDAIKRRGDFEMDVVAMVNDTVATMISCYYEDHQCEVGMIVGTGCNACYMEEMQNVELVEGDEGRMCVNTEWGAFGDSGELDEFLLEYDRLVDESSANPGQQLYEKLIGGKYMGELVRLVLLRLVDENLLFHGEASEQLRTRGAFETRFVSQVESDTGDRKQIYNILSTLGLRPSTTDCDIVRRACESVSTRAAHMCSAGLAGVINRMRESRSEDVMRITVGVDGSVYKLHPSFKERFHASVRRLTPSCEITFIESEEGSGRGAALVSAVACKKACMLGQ
Experiment: Glucokinase biochemical assay (PK/LDH-coupled, NADH depletion at 340 nm): % activation, EC50, % max activation
Details: 5 mM glucose; for activation at 10 µM: read-out: % Activation at 10 uM; for EC50: GK activation, read-out: EC50; for Emax / % Max Activation: fitted maximum activation; for Emax: read-out: % Max Activation
Description: Full-length glucokinase (beta cell isoform) was His-tagged at N-terminus and purified by a Ni column followed by size exclusion chromatography. Glucose was obtained from Calbiochem, and other reagents were from Sigma.
All assays were performed in a Corning 96-well plate using Spectramax PLUS spectrophotometer (Molecular Devices) at room temperature. The final assay volume was 100 uL. The buffer conditions used in this assay were as follows: 50 mM HEPES, 5 mM glucose, 1 mM ATP, 2 mM MgCl2, 0.7mM NADH, 2 mM DTT, 1 Unit/mL PK/LDH, 0.2 mM phosphoenolpyruvate, 25 mM KCl. Tested compound in DMSO solution was added to the buffer and mixed well by a plate shaker for 1 minute. The final concentration of DMSO introduced into the assay was 1%.
Glucokinase was added to the buffer mixture to initiate the reaction in the presence and absence of compound. Reaction was monitored by absorbance at 340nm due to the depletion of NADH. The initial reaction velocity was measured by the slope of a linear time course of 200-900 sec.
The percentage of activation was calculated by the following equation: % Activation=(Va/Vo−1)×100;
wherein each of Va and Vo is defined as the initial reaction velocity in the presence and absence of the tested compound, respectively.
The GK activities were measured as a function of compound concentrations.

[1] = 10 uM compound, % Activation=(Va/Vo−1)×100
[2] = compound at 10 uM, 1 mM ATP, room temperature

Structure (SMILES)	activation at 10 µM [1]	EC50	Emax	activation at 10 µM [2]	% Activation at 10 uM [1]	% Max Activation
Cn1ccc(NC(=O)c2cc(OCCCC#N)c3c(c2)OC(C)(C)C3)n1 [Example 93, 4-(3-Cyano-propoxy)-2,2-dimethyl-2,3-dihydro-benzofuran-6-carboxylic acid (1-methyl-1H-pyrazol-3-yl)-amide]	95.2%	9700 nM	136%	–	–	–
CN(C)C(=O)c1ccc(Oc2cc(C(=O)Nc3cnn(C)n3)cc3c2CC(C)(C)O3)cc1 [Example 153, 4-(4-Dimethylcarbamoyl-phenoxy)-2,2-dimethyl-2,3-dihydro-benzofuran-6-carboxylic acid (2-methyl-2H-[1,2,3]triazol-4-yl)-amide]	168%	150 nM	161%	–	–	–
Cn1ncc(NC(=O)c2cc(Oc3ccc(S(C)(=O)=O)c(Cl)c3)c3c(c2)OC(C)(C)C3)n1 [Example 118, 4-(3-Chloro-4-methanesulfonyl-phenoxy)-2,2-dimethyl-2,3-dihydro-benzofuran-6-carboxylic acid (2-methyl-2H-[1,2,3]triazol-4-yl)-amide]	244%	320 nM	251%	–	–	–
COCC1Cc2c(Oc3ccc(C(=O)N(C)C)cc3)cc(C(=O)Nc3ccn(C)n3)cc2O1 (single isomer, unassigned; (-)) [Example 213, (−)-4-(4-Dimethylcarbamoyl-phenoxy)-2-methoxymethyl-2,3-dihydro-benzofuran-6-carboxylic acid (1-methyl-1H-pyrazol-3-yl)-amide]	–	890 nM	–	–	83.1%	113%
CN(CC#N)C(=O)c1ccc(Oc2cc(C(=O)Nc3ccn(C)n3)cc3c2CC(C)(C)O3)cc1F [Example 67, 4-[4-(Cyanomethyl-methyl-carbamoyl)-3-fluoro-phenoxy]-2,2-dimethyl-2,3-dihydro-benzofuran-6-carboxylic acid(1-methyl-1H-pyrazol-3-yl)-amide]	131%	66 nM	130%	–	–	–
Cn1ncc(NC(=O)c2cc(Oc3ccc(S(C)(=O)=O)cc3)c3c(c2)OC(C)(C)C3)n1 [Example 20, 4-(4-Methanesulfonyl-phenoxy)-2,2-dimethyl-2,3-dihydro-benzofuran-6-carbo-xylic acid(2-methyl-2H-[1,2,3]triazol-4-yl)-amide]	230%	314 nM	231%	–	–	–
CN(C)S(=O)(=O)c1ccc(Oc2cc(C(=O)Nc3cnn(C)n3)cc3c2CC(C)(C)O3)cc1 [Example 134, 4-(4-Dimethylsulfamoyl-phenoxy)-2,2-dimethyl-2,3-dihydro-benzofuran-6-carboxylic acid (2-methyl-2H-[1,2,3]triazol-4-yl)-amide]	300%	190 nM	271%	–	–	–
Cc1cc2c(Oc3ccc(S(C)(=O)=O)cn3)cc(C(=O)Nc3ccn(C)n3)cc2o1 [Example 283, 2-Methyl-N-(1-methyl-1H-pyrazol-3-yl)-4-(5-(methylsulfonyl)-pyridin-2-yloxy)-benzofuran-6-carboxamide]	132%	> 10000 nM	–	–	–	–
CN(C)C(=O)c1ccc(Oc2cc(C(=O)Nc3ccc(C(N)=O)cn3)cc3c2CC(C)(C)O3)cc1F [Example 146, 6-{[4-(4-Dimethylcarbamoyl-3-fluoro-phenoxy)-2,2-dimethyl-2,3-dihydro-benzofuran-6-carbonyl]-amino}-nicotinamide]	25.1%	–	–	–	–	–
Cc1ccc(NC(=O)c2cc(Oc3ccc(S(C)(=O)=O)cc3)c3occc3c2)nc1 [Example 333, N-(5-methylpyridin-2-yl)-7-[4-(methylsulfonyl)phenoxy]-1-benzofuran-5-carboxamide]	52.8%	8600 nM	106%	–	–	–
CNC(=O)c1ccc(Oc2cc(C(=O)Nc3cnn(C)n3)cc3c2CC(C)(C)O3)cn1 [Example 170, 5-[2,2-Dimethyl-6-(2-methyl-2H-[1,2,3]triazol-4-ylcarbamoyl)-2,3-dihydro-benzofuran-4-yloxy]-pyridine-2-carboxylic acid methylamide]	264%	300 nM	255%	–	–	–
Cc1cc(NC(=O)c2cc(Oc3ccc(S(C)(=O)=O)cc3)c3c(c2)OC(C)(C)C3)no1 [Example 25, 4-(4-Methanesulfonyl-phenoxy)-2,2-dimethyl-2,3-dihydro-benzofuran-6-carboxylic acid(5-methyl-isoxazol-3-yl)-amide]	102%	1300 nM	116%	–	–	–
Cn1ccc(NC(=O)c2cc(Oc3ccc(C(=O)N4CCC4)c(F)c3)c3c(c2)OC(C)(C)C3)n1 [Example 33, 4-[4-(Azetidine-1-carbonyl)-3-fluoro-phenoxy]-2,2-dimethyl-2,3-dihydro-benzofuran-6-carboxylic acid(1-methyl-1H-pyrazol-3-yl)-amide]	–	66.1 nM	–	–	170%	171%
Cn1ccc(NC(=O)c2cc(Oc3ccc(S(=O)(=O)C4CCC4)cc3)c3c(c2)OC(C)(C)C3)n1 [Example 123, 4-(4-Cyclobutanesulfonyl-phenoxy)-2,2-dimethyl-2,3-dihydro-benzofuran-6-carboxylic acid (1-methyl-1H-pyrazol-3-yl)-amide]	189%	55 nM	150%	–	–	–
Cn1ccc(NC(=O)c2cc(Oc3ccc(C(=O)N4CCCC4)cc3)c3c(c2)OC(C)(C)C3)n1 [Example 48, 2,2-Dimethyl-4-[4-(pyrrolidine-1-carbonyl)-phenoxy]-2,3-dihydro-benzofuran-6-carboxylic acid(1-methyl-1H-pyrazol-3-yl)-amide]	130%	142 nM	114%	–	–	–

Next, values leading:

activation at 10 µM [1]	EC50	Emax	activation at 10 µM [2]	% Activation at 10 uM [1]	% Max Activation	Structure (SMILES)
35.5%	–	–	–	–	–	Cc1ccc(NC(=O)c2cc(Oc3ccc(S(C)(=O)=O)cc3)c3ncsc3c2)nc1 [Example 371, N-(5-Methylpyridin-2-yl)-4-[4-(methylsulfonyl)phenoxy]-1,3-benzothiazole-6-carboxamide]
–	–	–	32%	–	–	Cc1ccc(NC(=O)c2cc(Oc3ccc(S(C)(=O)=O)cc3)c3ccn(C)c(=O)c3c2)nc1 [Example 394, 2-Methyl-N-(5-methylpyridin-2-yl)-5-(4-(methylsulfonyl)-phenoxy)-1-oxo-1,2-dihydroisoquinoline-7-carboxamide]
45.8%	> 10000 nM	–	–	–	–	Cn1ccc(NC(=O)c2cc(Oc3ccc(S(C)(=O)=O)cc3)c3sccc3c2)n1 [Example 364, 7-(4-(Methylsulfonyl)phenoxy)-N-(1-methyl-1H-pyrazol-3-yl)benzo-[b]-thiophene-5-carboxamide]
47%	5800 nM	59%	–	–	–	Cc1ccc(NC(=O)c2cc(Oc3ccc(S(C)(=O)=O)cc3)c3ocnc3c2)nc1 [Example 367, N-(5-methylpyridin-2-yl)-7-[4-(methylsulfonyl)phenoxy]-1,3-benzoxazole-5-carboxamide]
3.5%	–	–	–	–	–	Cc1csc2cc(C(=O)Nc3ccn(C)n3)cc(O[C@@H](C)Cc3ccccc3)c12 [Example 354, 3-Methyl-4-[(1S)-1-methyl-2-phenylethoxy]-N-(1-methyl-1H-pyrazol-3-yl)-1-benzothiophene-6-carboxamide]
42.6%	3000 nM	89%	–	–	–	Cc1ccc(NC(=O)c2cc(Oc3ccc(S(C)(=O)=O)cc3)c3oc(C)cc3c2)nc1 [Example 337, 2-Methyl-N-(5-methylpyridin-2-yl)-7-[4-(methylsulfonyl)-phenoxy]-1-benzofuran-5-carboxamide]
84.5%	4300 nM	147%	–	–	–	Cc1cc2cc(C(=O)Nc3ccn(C)n3)cc(Oc3ccc(S(C)(=O)=O)cc3)c2o1 [Example 338, 2-Methyl-N-(1-methyl-1H-pyrazol-3-yl)-7-[4-(methylsulfonyl)-phenoxy]-1-benzofuran-5-carboxamide]
–	–	–	-1.85%	–	–	Cc1ccc(NC(=O)c2cc(OCc3ccccc3)c3c(c2)C(=O)N(C2CC2)C3)nc1 [Example 378, 7-(Benzyloxy)-2-cyclopropyl-N-(5-methylpyridin-2-yl)-3-oxoisoindoline-5-carboxamide]
